Where “and” joins values, the source holds several entries; their conditions need not be identical. Equal values may be shown once.
Tests used:
[1] = molecular target: T1, AMPK γ1 complex (dephosphorylated, FLAG-tagged human γ1) (Homo sapiens, UniProt P54619+Q13131); assay: Promotion of LKB1-dependent activation and Thr172 phosphorylation; assay type: biochemical; conditions: 5 mM ATP
T1 construct: would have predominantly been the α1β2γ1, α1β2γ2 or α1β2γ3 complexes; expressed in transfected cells; host or cells: HEK-293 (Flp recombinase target site, tetracycline-inducible); anti-FLAG immunoprecipitate
Protocol: (§1) Cell lysates (140, 500 and 2000 μg of lysate protein for γ1, γ2 and γ3 respectively) were incubated with 100 μl of EZview Red anti-FLAG M2 affinity gel, immunoprecipitated and washed as described previously. The IPs were resuspended in 100 μl of Hepes assay buffer and incubated in an orbital incubator with PP1γ (55 μg in 10 μl) in Hepes assay buffer for 30 min at 30°C. The dephosphorylation reactions were stopped by washing the IPs three times in Hepes assay buffer. The precipitates were then resuspended in 1 ml of Hepes assay buffer and divided into 100-μl aliquots. After centrifugation, 75 μl of each supernatant was removed, 5 μl of okadaic acid (final concentration 25 μM) was added and incubation continued for 5 min at 30°C. After this, AMP or ADP and LKB1 were added as specified and the reaction started by adding a mixture of MgCl2 (final concentration 9.8 mM) and ATP (final concentration 5 mM). Incubation was for 10 min at 30°C, after which the reactions were stopped by washing the IPs three times in Hepes assay buffer. They were resuspended in 400 μl of assay buffer and split for assays and analysis by Western blotting.
(§2) We next tested whether AMP promoted Thr^172 phosphorylation by LKB1, using complexes containing γ1, γ2 or γ3 expressed in HEK-293 cells and isolated using anti-FLAG antibody. The IPs were treated with the protein phosphatase-1 catalytic subunit (PP1γ) to remove phosphate from Thr^172, were washed to remove PP1γ, and okadaic acid was added to block the activity of any residual phosphatase. They were then treated with limiting quantities of LKB1 in the presence of 5 mM ATP (to mimic physiological conditions), with or without 1 mM AMP.
(§3) Figure 5 Effect of AMP on activation and Thr^172 phosphorylation of AMPK-γ isoforms induced by upstream kinases (A) Effect of a limiting quantity of LKB1, with or without AMP (1 mM), on AMPK activity. Anti-FLAG IPs from AMPK-γ1-, -γ2- or -γ3-expressing cells were treated with PP1γ to bring about complete dephosphorylation of Thr^172. PP1γ was removed by washing and okadaic acid was added to ensure complete inhibition of any residual phosphatase. The IPs were then incubated for 10 min with 5 mM ATP with or without LKB1 (1 μg) and with or without 1 mM AMP. […] (B) Effect of different concentrations of AMP on activation and Thr^172 phosphorylation of the AMPK-γ1 complex. Experiment as in (A) except using various concentrations of AMP in the presence of 5 mM ATP. Results in the upper panel (means ± S.E.M., n=6) are expressed relative to the control without AMP. Results were fitted to the equation: Y=1+[(activation–1) × X]/(EC50+X), where Y is the relative activity, X is the concentration of AMP, activation is the predicted maximal activation, and EC50 is the concentration of AMP causing half-maximal activation. The continuous line is the curve generated using this equation with the parameters quoted in the text. […] (C) As (A), except that we also tested the effects of 1 mM AMP on activation by CaMKKβ as well as LKB1. The amount of CaMKKβ added (0.34 μg) yielded a similar limited degree of activation to LKB1.
(§4) Figure 6 Effect of ADP on activation and Thr^172 phosphorylation of AMPK-γ isoforms induced by upstream kinases (A) Effect of AMP or ADP on activation of γ1-, γ2- or γ3-containing AMPK complexes induced by LKB1 in the presence of 5 mM ATP. Dephosphorylated AMPK complexes were generated as in Figure 3(A) and were incubated for 10 min with LKB1 with or without AMP (300 μM), ADP (1 mM) or the 5′-nucleotidase CD73 (0.86 μg). […] (B) Duplicate blots from the experiment shown in (A). (C) Effect of ADP on activation of AMPK-γ1 complexes by LKB1 in the presence of 5 mM ATP. The experiment was performed as in (A) except with various concentrations of ADP. Results (means ± S.E.M., n=3) are expressed relative to the basal activity in the absence of ADP and were fitted to the equation used for Figure 3(B). […]

[2] = molecular target: T2, AMPK γ3 complex (dephosphorylated, FLAG-tagged human γ3) (Homo sapiens, UniProt Q13131+Q9UGI9); assay: as above; assay type: biochemical; conditions: ADP 1 mM, 5 mM ATP
T2 construct: would have predominantly been the α1β2γ1, α1β2γ2 or α1β2γ3 complexes; expressed in transfected cells; host or cells: HEK-293 (Flp recombinase target site, tetracycline-inducible); anti-FLAG immunoprecipitate
Protocol: as §1, §2, §3, §4

[3] = molecular target: T3, AMPK γ2 complex (dephosphorylated, FLAG-tagged human γ2) (Homo sapiens, UniProt Q13131+Q9UGJ0); assay: as above; assay type: biochemical; conditions: ADP 1 mM, 5 mM ATP
T3 construct: would have predominantly been the α1β2γ1, α1β2γ2 or α1β2γ3 complexes; expressed in transfected cells; host or cells: HEK-293 (Flp recombinase target site, tetracycline-inducible); anti-FLAG immunoprecipitate
Protocol: as §1, §2, §3, §4

[4] = system: AMPK γ1 complex (dephosphorylated, FLAG-tagged human γ1); assay: as above; assay type: biochemical; conditions: 5 mM ATP, imprecise estimate, read-out: IC50 for the inhibitory effect on activation by LKB1
Protocol: as §1, §2, §3, §4

[5] = molecular target: T4, AMPK γ1 complex (FLAG-tagged human γ1) (Homo sapiens, UniProt P54619+Q13131); assay: Protection against inactivation and Thr172 dephosphorylation by PP2Cα; assay type: biochemical; conditions: 5 mM ATP, read-out: half-maximal effect for protection against inactivation by PP2Cα
T4 construct: would have predominantly been the α1β2γ1, α1β2γ2 or α1β2γ3 complexes; expressed in transfected cells; host or cells: HEK-293 (Flp recombinase target site, tetracycline-inducible); anti-FLAG immunoprecipitate
Protocol: (§5) AMPK was activated by incubating the cells in phenformin (10 mM) for 60 min prior to cell lysis. Cell lysates (225, 225 and 455 μg of lysate protein for γ1, γ2 and γ3 respectively) were incubated with 100 μl of EZview Red anti-FLAG M2 affinity gel beads at 4°C for 2 h on a roller mixer. The beads were washed twice with 1 ml of immunoprecipitation buffer and twice with 1 ml of Hepes assay buffer, resuspended in 1 ml of assay buffer and divided into 100-μl aliquots. The beads were recovered by centrifugation and 75 μl of the supernatant removed. In a final volume of 50 μl, AMP, ADP (as specified), ATP (5 mM) and PP2Cα (1.5 μg) were added and the reaction was started by adding MgCl2 (9.8 mM) to activate PP2Cα; the reactions were then conducted in a shaking incubator at 30°C for 10 min. They were stopped by washing the beads three times in assay buffer, resuspending them in 400 μl of assay buffer and dividing them into aliquots for kinase assays and analysis by Western blotting.
(§6) Finally, we addressed the effects of AMP and ADP on the dephosphorylation of γ1, γ2 and γ3 complexes by the protein phosphatase PP2Cα. Cells expressing γ1, γ2 or γ3 complexes were treated with phenformin to promote Thr^172 phosphorylation, the complexes were then isolated by immunoprecipitation and equal amounts (based on anti-FLAG blots) were treated with a limiting quantity of PP2Cα in the presence of increasing concentrations of AMP or ADP. As before, in order to simulate physiological conditions, these assays were performed in the presence of 5 mM ATP. […] The similar effects of AMP on all three complexes were confirmed by Western blot analysis using anti-pThr^172 antibodies (lower panel). The effects of ADP are shown in Figure 7(B); similar to results previously obtained with rat liver AMPK [28]
(§7) Figure 7 Effect of AMP and ADP on protection against Thr^172 dephosphorylation, measured at 5 mM ATP (A) […], -γ2 or -γ3 complexes were immunoprecipitated from cells treated with phenformin to cause maximal Thr^172 phosphorylation. The IPs were then incubated for 10 min with the protein phosphatase PP2Cα in the presence of 5 mM ATP and various concentrations of AMP. Inactivation was assessed by kinase assays (top panel) and Thr^172 dephosphorylation by Western blot (bottom panels). Results (means ± S.E.M., n=2) in the top panel are shown as percentage protection, which is the inactivation compared with control (without AMP), expressed as a percentage of the inactivation compared with control at the highest concentration of AMP used. Results were fitted to the equation Y=100 × X/(EC50+X) where Y is the percentage protection, X is the concentration of AMP, and EC50 is the concentration of AMP causing half-maximal protection. The continuous lines are the curves generated using this equation using the best-fit parameters quoted in the text. […] (B) As (A), but varying ADP in place of AMP.

[6] = molecular target: T5, AMPK γ3 complex (FLAG-tagged human γ3) (Homo sapiens, UniProt Q13131+Q9UGI9); assay: as above; assay type: biochemical; conditions: 5 mM ATP, read-out: half-maximal effect for protection against inactivation by PP2Cα
T5 construct: would have predominantly been the α1β2γ1, α1β2γ2 or α1β2γ3 complexes; expressed in transfected cells; host or cells: HEK-293 (Flp recombinase target site, tetracycline-inducible); anti-FLAG immunoprecipitate
Protocol: as §5, §6, §7

[7] = molecular target: T6, AMPK γ2 complex (FLAG-tagged human γ2) (Homo sapiens, UniProt Q13131+Q9UGJ0); assay: as above; assay type: biochemical; conditions: 5 mM ATP, read-out: half-maximal effect for protection against inactivation by PP2Cα
T6 construct: would have predominantly been the α1β2γ1, α1β2γ2 or α1β2γ3 complexes; expressed in transfected cells; host or cells: HEK-293 (Flp recombinase target site, tetracycline-inducible); anti-FLAG immunoprecipitate
Protocol: as §5, §6, §7

[8] = system: γ1-containing AMPK complexes in mouse skeletal muscle; design: method as in PMID 25695398; conditions: cited from earlier work
[9] = system: glucose uptake; design: method as in PMID 25695398; conditions: mouse skeletal muscle; cited from earlier work
[10] = system: γ3-containing AMPK complexes in HEK-293 cells expressing FLAG–γ3; design: method as in PMID 25695398; conditions: anti-FLAG IP; cited from earlier work
[11] = system: γ3-containing AMPK complexes in mouse skeletal muscle; design: method as in PMID 25695398; conditions: cited from earlier work
[12] = system: γ2-containing AMPK complexes in HEK-293 cells expressing FLAG–γ2; design: method as in PMID 25695398; conditions: anti-FLAG IP; cited from earlier work
[13] = system: γ1-containing AMPK complexes in HEK-293 cells expressing FLAG–γ1; design: method as in PMID 25695398; conditions: anti-FLAG IP; cited from earlier work

T1 sequence (P54619 whole entry): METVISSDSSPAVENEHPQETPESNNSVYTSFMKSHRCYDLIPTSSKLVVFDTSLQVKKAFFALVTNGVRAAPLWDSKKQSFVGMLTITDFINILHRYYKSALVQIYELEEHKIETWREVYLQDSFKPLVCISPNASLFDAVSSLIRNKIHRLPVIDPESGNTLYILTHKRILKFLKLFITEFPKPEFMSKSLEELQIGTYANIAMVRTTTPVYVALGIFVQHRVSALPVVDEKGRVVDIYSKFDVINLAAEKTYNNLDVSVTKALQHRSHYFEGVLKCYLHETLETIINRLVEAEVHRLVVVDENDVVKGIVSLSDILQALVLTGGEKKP
T1 sequence (Q13131 whole entry): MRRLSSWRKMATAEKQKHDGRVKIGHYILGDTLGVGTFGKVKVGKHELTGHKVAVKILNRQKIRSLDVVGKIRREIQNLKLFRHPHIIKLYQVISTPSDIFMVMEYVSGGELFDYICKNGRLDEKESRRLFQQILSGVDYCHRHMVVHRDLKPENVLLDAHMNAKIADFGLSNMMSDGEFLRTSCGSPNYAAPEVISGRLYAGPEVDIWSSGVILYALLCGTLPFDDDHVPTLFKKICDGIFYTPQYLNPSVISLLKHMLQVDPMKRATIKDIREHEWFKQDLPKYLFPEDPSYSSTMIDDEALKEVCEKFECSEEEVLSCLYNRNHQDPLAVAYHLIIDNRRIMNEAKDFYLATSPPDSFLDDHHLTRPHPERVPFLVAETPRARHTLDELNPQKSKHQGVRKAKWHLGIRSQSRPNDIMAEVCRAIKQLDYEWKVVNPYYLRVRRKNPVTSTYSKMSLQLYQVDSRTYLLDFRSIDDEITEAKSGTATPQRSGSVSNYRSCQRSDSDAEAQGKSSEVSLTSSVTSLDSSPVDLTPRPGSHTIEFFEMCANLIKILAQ
T1 sequence (O43741 whole entry partner): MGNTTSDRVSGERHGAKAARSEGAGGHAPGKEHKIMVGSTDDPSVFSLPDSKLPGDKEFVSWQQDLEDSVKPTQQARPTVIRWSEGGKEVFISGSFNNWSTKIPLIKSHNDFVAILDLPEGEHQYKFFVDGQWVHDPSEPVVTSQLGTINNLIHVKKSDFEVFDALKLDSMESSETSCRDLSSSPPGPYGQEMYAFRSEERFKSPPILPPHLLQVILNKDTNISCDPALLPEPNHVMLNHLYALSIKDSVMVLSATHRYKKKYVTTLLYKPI
T3 sequence (Q9UGJ0 whole entry): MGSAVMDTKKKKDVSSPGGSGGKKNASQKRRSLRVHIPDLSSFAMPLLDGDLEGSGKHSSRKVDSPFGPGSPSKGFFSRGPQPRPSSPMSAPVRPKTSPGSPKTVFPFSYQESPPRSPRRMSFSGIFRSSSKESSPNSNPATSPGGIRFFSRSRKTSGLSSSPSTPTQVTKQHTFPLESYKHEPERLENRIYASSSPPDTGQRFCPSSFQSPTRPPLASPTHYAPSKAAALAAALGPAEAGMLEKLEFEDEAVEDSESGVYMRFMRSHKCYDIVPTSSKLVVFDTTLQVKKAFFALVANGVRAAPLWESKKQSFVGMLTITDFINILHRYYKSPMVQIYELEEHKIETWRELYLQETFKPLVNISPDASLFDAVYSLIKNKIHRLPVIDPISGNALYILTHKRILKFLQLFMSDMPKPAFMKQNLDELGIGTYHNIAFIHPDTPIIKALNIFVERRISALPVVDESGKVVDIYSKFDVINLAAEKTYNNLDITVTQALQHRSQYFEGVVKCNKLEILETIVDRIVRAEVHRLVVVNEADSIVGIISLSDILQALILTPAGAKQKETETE
T3 sequence (Q13131 whole entry): as the sequence (Q13131 whole entry) above
T3 sequence (O43741 whole entry partner): as the sequence (O43741 whole entry partner) above
T6 sequence (Q9UGJ0 whole entry): as the sequence (Q9UGJ0 whole entry) above
T6 sequence (Q13131 whole entry): as the sequence (Q13131 whole entry) above
T6 sequence (O43741 whole entry partner): as the sequence (O43741 whole entry partner) above
T4 sequence (P54619 whole entry): as the sequence (P54619 whole entry) above
T4 sequence (Q13131 whole entry): as the sequence (Q13131 whole entry) above
T4 sequence (O43741 whole entry partner): as the sequence (O43741 whole entry partner) above
T2 sequence (Q9UGI9 whole entry): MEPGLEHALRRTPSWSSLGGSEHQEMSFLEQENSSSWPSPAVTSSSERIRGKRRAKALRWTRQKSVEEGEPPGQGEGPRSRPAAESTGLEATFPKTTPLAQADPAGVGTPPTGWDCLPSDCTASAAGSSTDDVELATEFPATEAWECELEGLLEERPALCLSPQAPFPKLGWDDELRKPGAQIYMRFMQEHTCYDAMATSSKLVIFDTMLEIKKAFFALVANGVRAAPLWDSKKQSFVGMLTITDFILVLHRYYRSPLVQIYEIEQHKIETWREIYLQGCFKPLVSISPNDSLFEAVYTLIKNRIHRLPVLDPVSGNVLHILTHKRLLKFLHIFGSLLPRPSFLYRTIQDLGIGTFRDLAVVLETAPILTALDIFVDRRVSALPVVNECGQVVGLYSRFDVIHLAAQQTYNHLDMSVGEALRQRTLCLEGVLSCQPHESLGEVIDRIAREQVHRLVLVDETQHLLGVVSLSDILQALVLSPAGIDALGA
T2 sequence (Q13131 whole entry): as the sequence (Q13131 whole entry) above
T2 sequence (O43741 whole entry partner): as the sequence (O43741 whole entry partner) above
T5 sequence (Q9UGI9 whole entry): as the sequence (Q9UGI9 whole entry) above
T5 sequence (Q13131 whole entry): as the sequence (Q13131 whole entry) above
T5 sequence (O43741 whole entry partner): as the sequence (O43741 whole entry partner) above

Structure (SMILES) | EC50 ([1]; imprecise estimate, read-out: EC50 for the activating effect on activation by LKB1) | stimulation of activation caused by Thr172 phosphorylation by LKB1 ([1]; ADP) [fold] | activation (best-fit, promotion of activation by LKB1) ([1]; various ADP, constrained to be 5-fold or less, confidence limits extremely wide) [fold] | effect on activation by LKB1 [2] | effect on activation by LKB1 [3] | IC50 [4] [mM] | EC50 [5] [µM] | EC50 [6] [µM] | EC50 [7] [µM] | activation of γ1-containing complexes [8] | glucose uptake [9] | activation of complex in HEK-293 cells [10] | activation of γ3-containing complexes [11] | activation of complex in HEK-293 cells [12] | activation of complex in HEK-293 cells [13]
Nc1ncnc2c1ncn2[C@@H]1O[C@H](COP(=O)(O)OP(=O)(O)O)[C@@H](O)[C@H]1O [ADP] | 1.8 mM and ≥ 1 mM | ~2 | 5 | not significant | not significant | 6.8 ± 3.1 | 910 ± 70 | 980 ± 150 | 180 ± 20 | – | – | – | – | – | –
Cc1cc(-c2ccc(/C=C3/SC(=Nc4ccc(Cl)c(C(=O)O)c4)NC3=O)o2)c([N+](=O)[O-])cc1C [PT-1] | – | – | – | – | – | – | – | – | – | activates | did not promote glucose uptake | all three complexes were activated | not | all three complexes were activated | all three complexes were activated

Source: publication PMC4700476, “Differential regulation by AMP and ADP of AMPK complexes containing different γ subunit isoforms” (Biochemical Journal, 2016)
